Columns and labels:
Format in all cases: cell-based
[1] = molecular target: T1, human prostanoid FP receptor (Homo sapiens, UniProt P43088); test: FLIPR Ca2+ signaling antagonist assay, FP receptor stable cell line; conditions: HEK-293 EBNA stable cell line; standard agonist 17-phenyl-PGF2α; NA = inactive (no antagonism or Kb 10,000 nM); PAg, Ag not defined
T1 construct: expressed in transfected cells
Method: (§1) The above compounds were tested for PG antagonist activity as follows using human recombinant prostanoid receptor (DP1, EP1-4, FP, IP and TP) stable cell lines:
(§2) In order to measure the response of Gs and Gi coupled prostanoid receptors as a Ca^2+ signal, chimeric G protein cDNAs were used. Stable cell lines over-expressing human prostanoid DP1, EP1-4, FP, IP, and TP receptors were established as follows:
(§3) Briefly, human prostanoid DP1, EP2, and EP4 receptor cDNAs were co-transfected with chimeric Gqs cDNA containing a haemagglutanin (HA) epitope; human prostanoid EP3 receptors were co-transfected with chimeric Gqi-HA; human EP1, FP, IP, and TP receptor cDNAs were expressed with no exogenous G-proteins. Gqs and Gqi chimeric cDNAs (Molecular Devices, Sunnyvale, Calif., U.S.A.), as well as cDNAs of prostanoid receptors, were cloned into a pCEP4 vector with a hygromycin B selection marker. Transfection into HEK-293 EBNA (Epstein-Barr virus nuclear antigen) cells was achieved by the FuGENE 6 transfection Reagent (Roche Applied Science, Indianapolis, Ind., USA). Stable transfectants were selected according to hygromycin resistance. Because Gqs and Gqi contained an HA epitope, G-protein expression was detected by Western blotting analysis using anti-mouse HA monoclonal antibody and horseradish peroxidase (HRP)-conjugated secondary antibody, while functional expression of prostanoid receptors was detected by FLIPR screening (Matias et al., 2004). These stable cell lines were validated using previously published antagonists at 10 μM against serial dilutions of standard agonists by FLIPR functional assays for Ca^2+ Signaling (as described below).
(§4) Ca^2+ signaling studies were performed using a FLIPR TETRA system (Molecular Devices, Sunnyvale, Calif., USA) in the 384-format. This is a high-throughput instrument for cell-based assays to monitor Ca^2+ signaling associated with GPCRs and ion channels. Cells were seeded at a density of 5×10^4 cells/well in BioCoat poly-D-lysine coated, black wall, clear bottom 384-well plates (BD Biosciences, Franklin lakes, NJ, USA) and allowed to attach overnight in an incubator at 37° C. The cells were then washed twice with HBSS-HEPES buffer (Hanks' balanced salt solution without bicarbonate and phenol red, 20 mM HEPES, pH 7.4) using an ELx405 Select CW Microplate Washer (BioTek, Winooski, Vt., USA). After 60 min of dye-loading in the dark using the Ca^2+-sensitive dye Fluo-4AM (Invitrogen, Carlsbad, Calif., USA), at a final concentration of 2×10^−6M, the plates were washed 4 times with HBSS-HEPES buffer to remove excess dye and leaving 50 μl of buffer in each well. The plates were then placed in the FLIPR TETRA instrument and allowed to equilibrate at 37° C. AGN-211377 was added in a 25 μl volume to each well to give final concentrations of 0.1 μM, 0.3 μM, 1 μM, 3 μM, 10 μM, and 30 μM; or 0.067 μM, 0.1 μM, 0.2 μM, 0.3 μM, 0.67 μM, and 1 μM for cells over-expressing TP receptors. After 4.5 minutes, a 7-point serial dilution of the standard agonist for the corresponding receptor, in a 25 μl volume was injected at the final concentrations from 10^−11M to 10^−5M in 10-fold serial dilution increments for cells expressing human recombinant DP1, EP1, EP2, EP3, EP4, FP, and IP receptors. The dose range for the standard agonist for human recombinant TP receptors was from 10^−12 M to 10^−6 M. HBSS-HEPES buffer was used as the negative control for the standard agonists. Cells were excited with LED (light emitting diode) excitation at 470-495 nm and emission was measured through an emission filter at 515-575 nm. Assay plates were read for 3.5 minutes using the FLIPR^TETRA. The peak increase in fluorescence intensity was recorded for each well. On each plate, negative controls, dose response of positive controls, and co-treatments of antagonist-agonist for each dose were in triplicates.
(§5) Standard agonists were as follows: DP=BW 245C, EP1-EP4=PGE2, FP=17-phenyl-PGF2α, IP=Cicaprost, and TP=U-46619. […]

[2] = molecular target: T2, human prostanoid DP1 receptor (Homo sapiens, UniProt Q13258); test: FLIPR Ca2+ signaling antagonist assay, DP1 receptor stable cell line; conditions: HEK-293 EBNA stable cell line; standard agonist BW 245C; NA = inactive (no antagonism or Kb 10,000 nM); PAg, Ag not defined
T2 construct: expressed in transfected cells
T2 sequence (Q13258 1-359): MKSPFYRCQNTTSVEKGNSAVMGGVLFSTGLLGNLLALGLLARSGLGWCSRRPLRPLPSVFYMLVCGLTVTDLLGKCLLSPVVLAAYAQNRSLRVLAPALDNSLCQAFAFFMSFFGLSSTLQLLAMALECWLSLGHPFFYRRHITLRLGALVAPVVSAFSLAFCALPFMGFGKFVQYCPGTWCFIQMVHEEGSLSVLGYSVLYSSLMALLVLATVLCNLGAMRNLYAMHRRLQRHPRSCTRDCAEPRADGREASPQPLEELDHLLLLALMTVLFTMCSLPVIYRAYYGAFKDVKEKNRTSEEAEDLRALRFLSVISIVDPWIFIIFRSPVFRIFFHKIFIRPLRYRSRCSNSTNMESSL
Method: as §1, §2, §3, §4, §5

[3] = molecular target: T3, human prostanoid EP1 receptor (Homo sapiens, UniProt P34995); test: FLIPR Ca2+ signaling antagonist assay, EP1 receptor stable cell line; conditions: HEK-293 EBNA stable cell line; standard agonist PGE2; NA = inactive (no antagonism or Kb 10,000 nM); PAg, Ag not defined
T3 construct: expressed in transfected cells
T3 sequence (P34995 1-402): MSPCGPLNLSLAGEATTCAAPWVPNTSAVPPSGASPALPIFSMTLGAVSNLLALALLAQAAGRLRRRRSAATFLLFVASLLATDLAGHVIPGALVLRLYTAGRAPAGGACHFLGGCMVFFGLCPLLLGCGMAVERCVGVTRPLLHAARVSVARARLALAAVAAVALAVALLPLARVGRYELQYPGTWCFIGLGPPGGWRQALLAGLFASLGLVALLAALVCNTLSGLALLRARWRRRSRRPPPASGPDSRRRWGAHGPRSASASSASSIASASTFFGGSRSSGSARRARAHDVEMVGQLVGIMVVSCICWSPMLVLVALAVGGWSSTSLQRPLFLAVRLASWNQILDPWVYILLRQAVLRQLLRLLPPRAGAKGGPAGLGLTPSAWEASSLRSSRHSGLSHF
Method: as §1, §2, §3, §4, §5

[4] = molecular target: T4, human prostanoid EP4 receptor (Homo sapiens, UniProt P35408); test: FLIPR Ca2+ signaling antagonist assay, EP4 receptor stable cell line; conditions: HEK-293 EBNA stable cell line; standard agonist PGE2; NA = inactive (no antagonism or Kb 10,000 nM); PAg, Ag not defined
T4 construct: expressed in transfected cells
Method: as §1, §2, §3, §4, §5

[5] = molecular target: T5, human prostanoid IP receptor (Homo sapiens, UniProt P43119); test: FLIPR Ca2+ signaling antagonist assay, IP receptor stable cell line; conditions: HEK-293 EBNA stable cell line; standard agonist Cicaprost; NA = inactive (no antagonism or Kb 10,000 nM); PAg, Ag not defined
T5 construct: expressed in transfected cells
Method: as §1, §2, §3, §4, §5

[6] = molecular target: T6, human prostanoid TP receptor (Homo sapiens, UniProt P21731); test: FLIPR Ca2+ signaling antagonist assay, TP receptor stable cell line; conditions: HEK-293 EBNA stable cell line; standard agonist U-46619; NA = inactive (no antagonism or Kb 10,000 nM); PAg, Ag not defined
T6 construct: expressed in transfected cells
T6 sequence (P21731 1-343): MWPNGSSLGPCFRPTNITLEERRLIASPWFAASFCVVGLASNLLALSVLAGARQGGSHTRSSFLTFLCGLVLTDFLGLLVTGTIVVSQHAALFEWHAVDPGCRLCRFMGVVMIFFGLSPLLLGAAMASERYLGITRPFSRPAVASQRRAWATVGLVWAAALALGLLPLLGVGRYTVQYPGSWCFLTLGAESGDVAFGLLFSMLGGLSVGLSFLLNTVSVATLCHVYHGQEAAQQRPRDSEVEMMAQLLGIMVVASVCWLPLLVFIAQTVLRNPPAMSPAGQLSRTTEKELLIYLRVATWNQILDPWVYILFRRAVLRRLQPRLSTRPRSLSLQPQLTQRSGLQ
Method: as §1, §2, §3, §4, §5

T4 sequence (P35408 whole entry): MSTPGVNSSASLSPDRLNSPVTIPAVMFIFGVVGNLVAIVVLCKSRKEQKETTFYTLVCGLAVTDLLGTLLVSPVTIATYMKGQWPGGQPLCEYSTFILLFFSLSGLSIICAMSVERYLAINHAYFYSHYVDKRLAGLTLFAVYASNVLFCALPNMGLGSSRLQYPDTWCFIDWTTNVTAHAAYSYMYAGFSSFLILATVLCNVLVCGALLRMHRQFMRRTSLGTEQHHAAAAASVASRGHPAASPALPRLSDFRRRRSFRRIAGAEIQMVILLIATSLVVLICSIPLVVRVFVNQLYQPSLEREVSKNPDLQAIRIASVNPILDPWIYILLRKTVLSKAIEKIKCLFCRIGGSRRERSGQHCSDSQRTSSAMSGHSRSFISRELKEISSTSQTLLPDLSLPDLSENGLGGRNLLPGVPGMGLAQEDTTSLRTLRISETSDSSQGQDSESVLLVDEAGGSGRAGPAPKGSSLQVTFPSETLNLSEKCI
T5 sequence (P43119 whole entry): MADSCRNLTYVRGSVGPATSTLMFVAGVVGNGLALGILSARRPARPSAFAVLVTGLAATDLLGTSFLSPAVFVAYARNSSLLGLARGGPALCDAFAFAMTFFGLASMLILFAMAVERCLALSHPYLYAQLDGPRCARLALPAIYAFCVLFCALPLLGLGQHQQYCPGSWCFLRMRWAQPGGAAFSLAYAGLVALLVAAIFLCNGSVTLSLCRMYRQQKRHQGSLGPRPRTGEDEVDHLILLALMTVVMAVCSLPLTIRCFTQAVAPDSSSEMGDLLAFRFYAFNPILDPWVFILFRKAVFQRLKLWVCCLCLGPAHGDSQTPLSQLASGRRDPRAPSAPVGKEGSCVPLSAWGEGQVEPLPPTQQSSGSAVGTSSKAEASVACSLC
T1 sequence (P43088 whole entry): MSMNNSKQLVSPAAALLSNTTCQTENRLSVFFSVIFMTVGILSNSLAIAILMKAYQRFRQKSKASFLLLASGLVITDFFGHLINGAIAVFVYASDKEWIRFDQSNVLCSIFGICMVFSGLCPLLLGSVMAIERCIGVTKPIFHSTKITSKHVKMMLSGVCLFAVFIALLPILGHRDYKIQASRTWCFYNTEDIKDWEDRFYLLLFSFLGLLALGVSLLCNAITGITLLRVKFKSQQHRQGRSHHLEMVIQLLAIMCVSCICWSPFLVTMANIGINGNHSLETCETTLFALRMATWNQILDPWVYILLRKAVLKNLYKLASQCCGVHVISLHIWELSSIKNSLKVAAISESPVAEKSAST

Row | Kb [1] [nM] | DP1 (FLIPR) Kb [2] | Kb [3] [nM] | Kb [4] [nM] | Kb [5] [nM] | Kb [6] [nM] | Kb [2] [nM] | Structure (SMILES)
1 | 160 | PAg | 200 | 1200 | 4500 | 7 |  | Cc1cc(CCC(=O)O)nn1Cc1cc(Cl)ccc1C#CCC(C)C [Example 76, 3-{1-[5-Chloro-2-(4-methylpentynyl)-benzyl]-5-methyl-1H-pyrazol-3-yl}-propionic acid]
2 | 400 |  | 11 | 600 | 4800 | 2 | 750 | C/C=C(\C)COc1ccc(Br)cc1Cn1nc(CCC(=O)O)cc1C [Example 9, 3-[1-(5-Bromo-2-((E)-2-methyl-but-2-enyloxy)-benzyl)-5-methyl-1H-pyrazol-3-yl]-propionic acid]
3 | 1000 |  | 180 | 1900 |  | 160 | 400 | Cc1cc(CCC(=O)O)nn1Cc1cc(Br)ccc1OCC1(C(F)(F)F)CCCC1 [Example 14, 3-[1-(5-Bromo-2-(1-trifluoromethylcyclopentylmethoxy)-benzyl)-5-methyl-1H-pyrazol-3-yl]-propionic acid]
4 | 1000 |  | 560 | 4700 |  | 1200 | 1700 | COc1ccc(OCC2CC2)c(Cn2nc(CCC(=O)O)cc2C)c1 [Example 54, 3-[1-(2-Cyclopropylmethoxy-5-methoxy-benzyl)-5-methyl-1H-pyrazol-3-yl]-propionic acid]
5 | 4000 |  | 800 |  |  | 1000 |  | Cc1cc(CCC(=O)O)nn1Cc1cc(Cl)ccc1OCC1CCCO1 (stereo not shown) [Example 33, 3-[1-(5-Chloro-2-(tetrahydrofuran-2-yl-methoxy)benzyl)-5-methyl-1H-pyrazol-3-yl]-propionic acid]
6 |  |  | 230 |  |  | 540 |  | Cc1cc(CCC(=O)NS(=O)(=O)c2ccccc2)nn1Cc1cc(Cl)ccc1OCc1ccc(Cl)cc1Cl [Example 28, N-(3-[1-(5-Chloro-2-(2,4-dichlorobenzyloxy)benzyl)-5-methyl-1H-pyrazol-3-yl]-propionyl)benzenesulfonamide]
7 | 500 |  | 14 | 500 |  | 5 | 800 | Cc1cc(CCC(=O)NS(=O)(=O)C(F)(F)F)nn1Cc1cc(Cl)ccc1OCC(C)C [Example 44, N-(3-[1-(5-Chloro-2-(2-methylpropyloxy)benzyl)-5-methyl-1H-pyrazol-3-yl]-propionyl)C,C,C-trifluoromethanesulfon amide]
8 | 660 |  | 240 |  | 6100 | 35 | 500 | CCC(CC)Oc1ccc(Cl)cc1Cn1nc(CCC(=O)O)cc1C [Example 45, 3-[1-(5-Chloro-2-(1-ethylpropyloxy)benzyl)-5-methyl-1H-pyrazol-3-yl]-propionic acid]
9 | 1000 |  | 180 | 1900 |  | 160 | 400 | Cc1cc(CCC(=O)O)nn1Cc1cc(Cl)ccc1OCC1(C(F)(F)F)CCCC1 [Example 37, 3-[1-(5-Chloro-2-(1-trifluoromethylcyclopentylmethoxy)benzyl)-5-methyl-1H-pyrazol-3-yl]-propionic acid]

Row | Structure (SMILES) | Kb [1] [nM] | DP1 (FLIPR) Kb [2] | Kb [3] [nM] | Kb [4] [nM] | Kb [5] [nM] | Kb [6] [nM] | Kb [2] [nM]
10 | CCC(CC)COc1ccccc1Cn1nc(CC(C)C(=O)O)cc1C (racemic) [Example 69, 3-{1-[2-(2-ethyl-butoxy)-benzyl]-5-methyl-1H-pyrazol-3-yl}-2-methyl-propionic acid] | 2500 |  | 180 | 600 |  | 300 | 700
11 | CCC(C)(CC)COc1ccc(Br)cc1Cn1nc(CCC(=O)O)cc1C [Example 11, 3-{1-[5-Bromo-2-(2-ethyl-2-methyl-butoxy)-benzyl]-5-methyl-1H-pyrazol-3-yl}-propionic acid] | 110 |  | 36 | 430 |  | 25 | 380
12 | CCC(CC)COc1ccc(C(N)=O)cc1Cn1nc(CCC(=O)O)cc1C [Example 61, 3-{1-[5-Carbamoyl-2-(2-ethyl-butoxy)-benzyl]-5-methyl-1H-pyrazol-3-yl}-propionic acid] |  |  |  | 800 |  | 1100 | 
13 | CCC(CC)COc1ccc(C(=O)O)cc1Cn1nc(CCC(=O)O)cc1C [Example 62, 3-{1-[5-Carboxy-2-(2-ethyl-butoxy)-benzyl]-5-methyl-1H-pyrazol-3-yl}-propionic acid] |  |  | 2000 |  |  | 3700 | 
14 | CCC(CC)COc1ccc(F)cc1Cn1nc(CCC(=O)O)cc1C [Example 47, 3-[1-[2-(2-Ethyl-butoxy)-5-fluoro-benzyl]-5-methyl-1H-pyrazol-3-yl]-propionic acid] | 2300 |  | 370 | 400 |  | 100 | 240

From US9394284B2, “Compounds act at multiple prostaglandin receptors giving a general anti-inflammatory response” (Allergan, Inc., priority 2010, dated 2016)
